This note sets out measurements from patent US10758534B2 (Vertex Pharmaceuticals Incorporated, priority 2014, dated 2020).

As usually defined, the EC30 is the concentration needed for an effect of 30%.

The experiment deals with T1, F508del (Homo sapiens, UniProt P13569, DEL508-508).
T1 construct: expressed in transfected cells
The experiment in a line: Protocol 2: FRET membrane potential optical assay (VIPR), identification of correction compounds. The format is cell-based. An excerpt: Membrane potential optical methods for assaying F508del modulation properties of compounds.
These voltage sensitive assays are based on the change in fluorescence resonant energy transfer (FRET) between the membrane-soluble, voltage-sensitive dye, DiSBAC2(3), and a fluorescent phospholipid, CC2-DMPE, which is attached to the outer leaflet of the plasma membrane and acts as a FRET donor. Changes in membrane potential (Vm) cause the negatively charged DiSBAC2(3) to redistribute across the plasma membrane and the amount of energy transfer from CC2-DMPE changes accordingly. The changes in fluorescence emission were monitored using VIPR™ II, which is an integrated liquid handler and fluorescent detector designed to conduct cell-based screens in 96- or 384-well microtiter plates.
To identify small molecules that correct the trafficking defect associated with F508del; a single-addition HTS assay format was developed. The cells were incubated in serum-free medium for 16 hrs at 37° C. in the presence or absence (negative control) of test compound. As a positive control, cells plated in 384-well plates were incubated for 16 hrs at 27° C. to “temperature-correct” F508del. The cells were subsequently rinsed 3× with Krebs Ringers solution and loaded with the voltage-sensitive dyes. To activate F508del, 10 μM forskolin and the CFTR potentiator, genistein (20 μM), were added along with Cl^−-free medium to each well. The addition of Cl^−-free medium promoted Cl^− efflux in response to F508del activation and the resulting membrane depolarization was optically monitored using the FRET-based voltage-sensor dyes.
• Bath Solution #1: (in mM) NaCl 160, KCl 4.5, CaCl2 2, MgCl2 1, HEPES 10, pH 7.4 with NaOH. • Chloride-free bath solution: Chloride salts in Bath Solution #1 (above) are substituted with gluconate salts. • CC2-DMPE: Prepared as a 10 mM stock solution in DMSO and stored at −20° C. • DiSBAC2(3): Prepared as a 10 mM stock in DMSO and stored at −20° C. Cell Culture
NIH3T3 mouse fibroblasts stably expressing F508del are used for optical measurements of membrane potential. The cells are maintained at 37° C. in 5% CO2 and 90% humidity in Dulbecco's modified Eagle's medium supplemented with 2 mM glutamine, 10% fetal bovine serum, 1×NEAA, β-ME, 1× pen/strep, and 25 mM HEPES in 175 cm^2 culture flasks. For all optical assays, the cells were seeded at 30,000/well in 384-well matrigel-coated plates and cultured for 2 hrs at 37° C. before culturing at 27° C. for 24 hrs for the potentiator assay. For the correction assays, the cells are cultured at 27° C. or 37° C. with and without compounds for 16-24 hours.

Where [1] appears, read: F508del CFTR modulator activity, compounds of Table 1, read-out: EC30.
Where [2] appears, read: Table 3, compounds of Table 1 as modulators of CFTR activity, protocol not stated.

Each structure is given as a SMILES string. Read-outs that look alike come from different tables or passages of the source.

T1 sequence (P13569 with tags, fused parts or gaps DEL508-508): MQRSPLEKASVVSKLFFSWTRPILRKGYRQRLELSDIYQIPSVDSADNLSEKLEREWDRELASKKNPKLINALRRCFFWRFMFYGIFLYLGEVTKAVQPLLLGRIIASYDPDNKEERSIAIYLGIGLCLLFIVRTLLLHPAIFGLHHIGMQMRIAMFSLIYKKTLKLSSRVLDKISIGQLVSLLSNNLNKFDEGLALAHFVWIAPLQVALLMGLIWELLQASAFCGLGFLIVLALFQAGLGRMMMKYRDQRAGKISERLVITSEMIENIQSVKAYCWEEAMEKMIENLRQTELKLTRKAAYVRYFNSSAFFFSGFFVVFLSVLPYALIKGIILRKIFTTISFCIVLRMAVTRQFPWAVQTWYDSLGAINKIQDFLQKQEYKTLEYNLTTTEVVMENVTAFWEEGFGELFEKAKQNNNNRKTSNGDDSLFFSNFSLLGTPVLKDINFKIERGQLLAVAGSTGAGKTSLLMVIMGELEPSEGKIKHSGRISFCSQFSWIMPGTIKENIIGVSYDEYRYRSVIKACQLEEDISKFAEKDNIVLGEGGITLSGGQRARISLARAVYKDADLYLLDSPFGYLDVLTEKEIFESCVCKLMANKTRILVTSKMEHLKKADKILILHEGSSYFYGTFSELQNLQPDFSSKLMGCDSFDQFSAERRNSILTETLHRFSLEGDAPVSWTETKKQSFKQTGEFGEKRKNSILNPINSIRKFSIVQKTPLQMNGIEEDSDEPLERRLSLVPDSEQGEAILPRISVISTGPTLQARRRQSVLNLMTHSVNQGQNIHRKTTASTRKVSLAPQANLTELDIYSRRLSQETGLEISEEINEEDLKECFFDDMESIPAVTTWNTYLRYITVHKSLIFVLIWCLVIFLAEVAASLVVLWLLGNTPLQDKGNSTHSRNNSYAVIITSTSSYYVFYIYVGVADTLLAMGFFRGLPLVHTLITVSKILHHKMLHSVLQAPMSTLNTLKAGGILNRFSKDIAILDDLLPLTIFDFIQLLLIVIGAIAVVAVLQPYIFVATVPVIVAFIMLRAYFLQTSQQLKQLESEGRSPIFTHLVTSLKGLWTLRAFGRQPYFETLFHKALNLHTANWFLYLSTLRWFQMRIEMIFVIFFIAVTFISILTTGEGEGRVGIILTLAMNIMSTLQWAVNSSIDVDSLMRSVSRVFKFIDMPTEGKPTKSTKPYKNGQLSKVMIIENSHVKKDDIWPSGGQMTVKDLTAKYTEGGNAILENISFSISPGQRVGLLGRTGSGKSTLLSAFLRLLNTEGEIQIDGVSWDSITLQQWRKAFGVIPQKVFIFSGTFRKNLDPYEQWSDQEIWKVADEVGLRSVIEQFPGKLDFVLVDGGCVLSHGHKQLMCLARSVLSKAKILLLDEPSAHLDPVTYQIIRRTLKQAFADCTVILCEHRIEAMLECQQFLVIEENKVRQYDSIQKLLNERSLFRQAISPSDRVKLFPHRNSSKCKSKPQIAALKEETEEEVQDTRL

As to `Cc1ccc(F)c(-c2ccc(C(=O)NS(=O)(=O)c3cccnc3N)c(N3C[C@@H](C)CC3(C)C)n2)c1` [Compound 2205, N-[(2-amino-3-pyridyl)sulfonyl]-6-(2-fluoro-5-methyl-phenyl)-2-[(4S)-2,2,4-trimethylpyrrolidin-1-yl]pyridine-3-carboxamide], the EC30 under setting [1] was below 3000 nM.

In the case of `COc1ncc(-c2ccc(C(=O)NS(=O)(=O)c3cccc(N)n3)c(Oc3c(C)cc(C)cc3C)n2)cc1C` [Compound 705, N-[(6-amino-2-pyridyl)sulfonyl]-6-(6-methoxy-5-methyl-3-pyridyl)-2-(2,4,6-trimethylphenoxy)pyridine-3-carboxamide], the EC30 result under setting [2] is listed as “+++ (“+++” means <3 uM)”.

`Cc1cc(C)c(Cn2c(C(=O)NS(=O)(=O)c3ccncc3)cc3cc(Cl)ccc32)c(C)c1` [Compound 65, 5-chloro-N-(4-pyridylsulfonyl)-1-[(2,4,6-trimethylphenyl)methyl]indole-2-carboxamide]: under setting [2], the concentration for an effect of 30% (EC30) result is “++ (“++” means between 3 uM and 10 uM)”.

As to `CC1CN(c2ncccc2C(=O)NS(=O)(=O)c2cccc(NCc3ccc(C(C)C)cc3)n2)C(C)(C)C1` (centres unmarked) [Compound 2187, N—[[6-[(4-isopropylphenyl)methylamino]-2-pyridyl]sulfonyl]-2-(2,2,4-trimethylpyrrolidin-1-yl)pyridine-3-carboxamide], the concentration for an effect of 30% (EC30) under setting [1] is below 3000 nM.

As to `Cc1cc(C)c(Oc2nc(C3CCC(C)CC3)ccc2C(=O)NS(=O)(=O)c2cccc(N)n2)c(C)c1` (centres unmarked) [Compound 172, N-[(6-amino-2-pyridyl)sulfonyl]-6-(4-methylcyclohexyl)-2-(2,4,6-trimethylphenoxy)pyridine-3-carboxamide], under setting [2], the EC30 entry is given as “+++ (“+++” means <3 uM)”.

Consider `C[C@@H]1CN(c2nc(-c3ccc(C#N)cc3)ccc2C(=O)NS(=O)(=O)c2cccnc2N)C(C)(C)C1` [Compound 2096, N-[(2-amino-3-pyridyl)sulfonyl]-6-(4-cyanophenyl)-2-[(4S)-2,2,4-trimethylpyrrolidin-1-yl]pyridine-3-carboxamide], for which the EC30 under setting [1] was below 3000 nM.

For `Cc1cc(C)c(Oc2nc(-c3cnn(C)c3C)ccc2C(=O)NS(=O)(=O)c2cccc(N)n2)c(C)c1` [Compound 584, N-[(6-amino-2-pyridyl)sulfonyl]-6-(1,5-dimethylpyrazol-4-yl)-2-(2,4,6-trimethylphenoxy)pyridine-3-carboxamide], the EC30 entry under setting [2] is “++ (“++” means between 3 uM and 10 uM)”.

Consider `Cc1cc(C)c(Oc2nc(C(C)(C)C)ccc2C(=O)NS(=O)(=O)c2nc(N)cs2)c(C)c1` [Compound 265, N-(4-aminothiazol-2-yl)sulfonyl-6-tert-butyl-2-(2,4,6-trimethylphenoxy)pyridine-3-carboxamide], for which, under setting [2], the concentration for an effect of 30% (EC30) entry is listed as “+++ (“+++” means <3 uM)”.

As to `CCCC(C)Nc1cccc(S(=O)(=O)NC(=O)c2cccnc2N2CC(C)CC2(C)C)n1` (centres unmarked) [Compound 2197, N—[[6-(1-methylbutylamino)-2-pyridyl]sulfonyl]-2-(2,2,4-trimethylpyrrolidin-1-yl)pyridine-3-carboxamide], the EC30 under setting [1] is below 3000 nM.

For the compound `CC1CN(c2ncccc2C(=O)NS(=O)(=O)c2cccc(OCc3c(F)cccc3Cl)n2)C(C)(C)C1` (centres unmarked) [Compound 2717], the 30% effect concentration (EC30) under setting [1] is below 3000 nM.

Take `CC(=O)c1ccc(Oc2cccc(S(=O)(=O)NC(=O)c3cccnc3N3CC(C)CC3(C)C)n2)cc1` (centres unmarked) [Compound 2730]: the concentration for an effect of 30% (EC30) under setting [1] fell in the range of 3000 to 10000 nM.

Take `Cc1cc(-c2ccc(C(=O)NS(=O)(=O)c3cccc(N)n3)c(N3C[C@@H](C)CC3(C)C)n2)cnc1NC(C)C` [Compound 2685]: under setting [1], the 30% effect concentration (EC30) was below 3000 nM.

Regarding `CCOCCNc1ncc(-c2ccc(C(=O)NS(=O)(=O)c3cccc(N)n3)c(N3C[C@@H](C)CC3(C)C)n2)cc1C` [Compound 2683], the EC30 under setting [1] is below 3000 nM.

On to `Cc1cc(C)c(Oc2nc(C(F)(F)F)ccc2C(=O)NS(=O)(=O)c2ccccc2)c(C)c1` [Compound 244, N-(benzenesulfonyl)-6-(trifluoromethyl)-2-(2,4,6-trimethylphenoxy)pyridine-3-carboxamide], for which, under setting [2], the EC30 entry is reported as “+++ (“+++” means <3 uM)”.

With `C[C@@H]1CN(c2nc(-n3ccc(OCC(C)(C)C)n3)ccc2C(=O)NS(=O)(=O)c2cccnc2N2CCCCC2)C(C)(C)C1` [Compound 2670, 6-[3-(2,2-dimethylpropoxy)pyrazol-1-yl]-N-[[2-(1-piperidyl)-3-pyridyl]sulfonyl]-2-[(4S)-2,2,4-trimethylpyrrolidin-1-yl]pyridine-3-carboxamide], the EC30 under setting [1] was below 3000 nM.

Take `CCC1(COc2nc(-c3cc(F)cc(OCC(C)C)c3)ccc2C(=O)NS(=O)(=O)c2cccc(N)n2)COC1` [Compound 618, N-[(6-amino-2-pyridyl)sulfonyl]-2-[(3-ethyloxetane-3-yl)methoxy]-6-(3-fluoro-5-isobutoxy-phenyl)pyridine-3-carboxamide]: the EC30 entry under setting [2] was “++ (“++” means between 3 uM and 10 uM)”.

For the compound `CC(C)COc1cc(F)cc(-c2ccc(C(=O)NS(=O)(=O)C3CCNC3)c(N3C[C@@H](C)CC3(C)C)n2)c1` (stereo partly drawn) [Compound 2042, 6-(3-fluoro-5-isobutoxy-phenyl)-N-pyrrolidin-3-ylsulfonyl-2-[(4S)-2,2,4-trimethylpyrrolidin-1-yl]pyridine-3-carboxamide], under setting [1], the EC30 was below 3000 nM.

With `Cc1cc(C)c(Cn2c(C(=O)NS(=O)(=O)c3cccc(N)c3)cc3ccc(C)cc32)c(C)c1` [Compound 62, N-(3-aminophenyl)sulfonyl-6-methyl-1-[(2,4,6-trimethylphenyl)methyl]indole-2-carboxamide], the concentration for an effect of 30% (EC30) result under setting [2] is recorded as “+++ (“+++” means <3 uM)”.

Take `Cc1ccc(-c2nc(-c3cc(F)cc(OCC(C)C)c3)ccc2C(=O)NS(=O)(=O)N2CC[C@@H](N)C2)cc1` [Compound 2276, N-[(3R)-3-aminopyrrolidin-1-yl]sulfonyl-6-(3-fluoro-5-isobutoxy-phenyl)-2-(p-tolyl)pyridine-3-carboxamide]: under setting [1], the EC30 was below 3000 nM.

As for `COc1ccccc1CN(C)c1cccc(S(=O)(=O)NC(=O)c2cccnc2N2CC(C)CC2(C)C)n1` (centres unmarked) [Compound 2090, N—[[6-[(2-methoxyphenyl)methyl-methyl-amino]-2-pyridyl]sulfonyl]-2-(2,2,4-trimethylpyrrolidin-1-yl)pyridine-3-carboxamide], the concentration for an effect of 30% (EC30) under setting [1] is below 3000 nM.

With `CC1CN(c2ncccc2C(=O)NS(=O)(=O)c2cccc(N3CCC(F)CC3)n2)C(C)(C)C1` (centres unmarked) [Compound 2453, N—[[6-(4-fluoro-1-piperidyl)-2-pyridyl]sulfonyl]-2-(2,2,4-trimethylpyrrolidin-1-yl)pyridine-3-carboxamide], the EC30 under setting [1] is below 3000 nM.

Regarding `CC(C)(C)c1ccc(C(=O)NS(=O)(=O)c2cccc(N)c2)c(-c2ccccc2)n1` [Compound 542, N-(3-aminophenyl)sulfonyl-6-tert-butyl-2-phenyl-pyridine-3-carboxamide], the 30% effect concentration (EC30) entry under setting [2] is listed as “+++ (“+++” means <3 uM)”.

As to `Cc1ccc(-c2ccc(C(=O)NS(=O)(=O)N3CC[C@H](N)C3)c(N3C[C@@H](C)CC3(C)C)n2)cc1F` [Compound 2587, N-[(3S)-3-aminopyrrolidin-1-yl]sulfonyl-6-(3-fluoro-4-methyl-phenyl)-2-[(4S)-2,2,4-trimethylpyrrolidin-1-yl]pyridine-3-carboxamide], the concentration for an effect of 30% (EC30) under setting [1] is 3000 to 10000 nM.

Regarding `C[C@@H]1CN(c2nc(-n3ccc(OCC(C)(C)C)n3)ccc2C(=O)NS(=O)(=O)C2CC2)C(C)(C)C1` [Compound 2554, N-cyclopropylsulfonyl-6-[3-(2,2-dimethylpropoxy)pyrazol-1-yl]-2-[(4S)-2,2,4-trimethylpyrrolidin-1-yl]pyridine-3-carboxamide], under setting [1], the 30% effect concentration (EC30) was below 3000 nM.

In the case of `Cc1cc(-c2ccc(C(=O)NS(=O)(=O)c3ccc[nH]c3=O)c(N3C[C@@H](C)CC3(C)C)n2)ccc1F` [Compound 2456, 6-(4-fluoro-3-methyl-phenyl)-N-[(2-oxo-1H-pyridin-3-yl)sulfonyl]-2-[(4S)-2,2,4-trimethylpyrrolidin-1-yl]pyridine-3-carboxamide], under setting [1], the EC30 was below 3000 nM.

For the compound `CC1CN(c2ncc(-c3ccc(C#N)cc3)cc2C(=O)NS(=O)(=O)c2cccc(N)n2)C(C)(C)C1` (centres unmarked) [Compound 2304, N-[(6-amino-2-pyridyl)sulfonyl]-5-(4-cyanophenyl)-2-(2,2,4-trimethylpyrrolidin-1-yl)pyridine-3-carboxamide], under setting [1], the 30% effect concentration (EC30) is below 3000 nM.
